Data reported in the METLIN SMRT retention time set (Domingo-Almenara et al. 2019).

Experiment: gradient 5% acetonitrile 3 min, to 50% in 2 min, to 85% in 15 min, held 3 min, 100 µL/min
Settings: column: Zorbax Extend-C18 2.1 x 50 mm; eluents: water / acetonitrile, 0.1% formic acid
How it was run: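 Standards, all pure, were combined into mixtures of ~100 molecules and run at 100 μL/min on a Zorbax Extend-C18 column (2.1 × 50 mm, 1.8 μm) with water and acetonitrile, each containing 0.1% formic acid. A coupled quadrupole time-of-flight mass spectrometer operated in positive and negative ionization mode. Retention time values come from computationally picked adduct peaks, each inspected manually.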

Structure (SMILES) | RP-LC retention time [s]
Fc1ccc(-c2noc(-c3ccc(NCC4CCCO4)nc3)n2)cc1 (centres undefined) | 940
O=C1CCCc2cc(S(=O)(=O)NCCCN3CCN(c4ccccc4)CC3)ccc2N1 | 576
Cn1nc(-c2nc(-c3ccccc3)no2)c2c1CCN(C(=O)NC1CCCCC1)C2 | 914
COc1ccc2oc(-c3csc(NC(=O)c4ccc(N5C(=O)CCC5=O)cc4)n3)cc2c1 | 884
Cc1ccc(S(=O)(=O)N2CCC(n3c(-c4ccoc4)nc4cccnc43)C2)cc1 (centres undefined) | 863
CCCCC(=O)N1CCN(C2CCN(CCC(C)C)C2=O)CC1 (centres undefined) | 585
COc1ccc(OC)c(NC(=O)C2=Cc3cc(Br)ccc3OC2)c1 | 1150
O=C(Nc1ccc2ccccc2c1)c1ccc(Cl)cc1Cl | 1130
CC(C)c1ccc(CNc2nc3ccncc3n(Cc3ccccc3)c2=O)cc1 | 842
CNC(=O)Cc1csc(-c2ccccc2F)n1 | 725
COCCNC(=O)N1CC(c2nc(-c3cccnc3)no2)C2(CCOCC2)C1 (centres undefined) | 596
CSc1ccccc1C(=O)N1CC2CC1C(=O)O2 (centres undefined) | 628
Cc1noc(C)c1Cc1ccc(C(=O)N2CCC(c3nc(CCOCC4CC4)no3)C2)o1 (centres undefined) | 784
Cc1cc(C)n(CCC(=O)N[C@@H]2CN(S(C)(=O)=O)C[C@H]2CN(C)C)n1 | 564
CN(Cc1ccco1)c1nc(-c2ccc(Cl)cc2)nc2ccccc12 | 858
Cc1ccccc1Cn1cc(C(=O)Nc2cccc(Br)c2)ccc1=O | 877
CCc1nc2ccc(-c3noc(-c4cccs4)n3)cc2n1CC | 702
CCOC(=O)c1c(C)n(Cc2ccco2)c2ccc(OC)cc12 | 1050
CC(C)c1noc(-c2cc(=O)n(CC(=O)NCc3cccs3)c3ccccc23)n1 | 933
Cc1cccc(NC(=O)Cn2cnc3c(sc4nc(-c5ccccc5)ccc43)c2=O)c1 | 1040
Cc1cnc(-c2ccccc2)n1CCNS(=O)(=O)c1ccc2c(c1)CCC2 | 689
CC(=O)Nc1ccc(NC(=O)c2cccc(N3C(=O)NC4CC3(C)Oc3ccc(Cl)cc34)c2)cc1 (centres undefined) | 754
Fc1ccc(-n2cc(-c3noc(-c4cccc(F)c4)n3)nn2)cc1 | 1050

Structure (SMILES) | RP-LC retention time [s]
CCOCCCNC(=O)c1cc2sc(CC)cc2n1C | 960
CC1(C(=O)NC2CCCCCC2)CN(S(C)(=O)=O)CC(=O)N1c1cccc(F)c1 (centres undefined) | 835
O=C(Nc1cc(-c2ccccn2)no1)c1ccccc1Br | 789
CC(C)c1cnn2c(NCc3ccccc3)cc(NCCCCCCN)nc12 | 653
CN1CCCCCCN(S(=O)(=O)c2cccc3nsnc23)CCC1=O | 783
O=S(=O)(c1ccc2nncn2c1)N(Cc1ccccc1)c1cccc(F)c1 | 851
Cc1ccccc1Nc1nc(N)c2c(F)cccc2n1 | 610
CCc1nc2cc(-c3noc(COc4cccc(C)c4)n3)ccc2o1 | 1280
CC(C)N1C(=O)C(C)(C(=O)NCc2cccc(Br)c2)Oc2cccnc21 (centres undefined) | 1030
CNc1nc(Nc2ccccc2)nc2ccccc12 | 633
Cn1c(N2CCCC(C(=O)N3CCN(c4ncccn4)CC3)C2)cc(=O)n(C)c1=O (centres undefined) | 618
CC(C)(C)c1ccc(-c2noc(CN3C(=O)COc4cc(Cl)ccc43)n2)cc1 | 1360
Cc1cc(OCC(=O)N2CCCCC2CCN2CCOCC2)ccc1Cl (centres undefined) | 689
O=C1C[C@@H](c2ccc(O)c(O)c2)Oc2cc(O[C@H]3O[C@@H](CO)[C@H](O)[C@@H](O)[C@@H]3O)cc(O)c21 | 723
COc1ccc(OCC(=O)N2CCc3cc(-c4csc(C)n4)ccc32)cc1 | 958
Cc1cccc(C(=O)NCc2nn(C)c3ccccc23)c1 | 814
Fc1ccccc1-c1nc(-c2ccc3nncn3c2)no1 | 785
COc1ccccc1-c1nc(COC(=O)C2=CN(Cc3ccccc3)S(=O)(=O)N=C2C)no1 | 1070
Cn1c(CN2CCN(C(=O)COc3ccc(F)cc3)CC2)nc2ccccc21 | 581
Cc1nc(NC(=O)c2cc(C3CC3)n(C3CCS(=O)(=O)C3)n2)sc1C (centres undefined) | 764
O=S(=O)(c1ccc(-c2nnc(C3CC3)o2)o1)N1CCCCCC1 | 898
CC(Oc1ccccc1)c1nc(-c2ccc3nnn(C)c3c2)no1 (centres undefined) | 1060
CC(C)OCCCNC(=O)CCc1c(-c2ccc(Br)cc2)nc2ccccn12 | 652

The remaining lines, values ahead:

RP-LC retention time [s] | Structure (SMILES)
612 | CCOc1ccccc1N1CCN(Cc2cc(C)[nH]n2)CC1
742 | Cc1c(F)cccc1NC(=O)N(C)CC1CCOCC1
866 | O=C(NCc1csc(-c2ccccc2)n1)[C@H]1CCCN1C(=O)c1ccc(Br)cc1
955 | COC(=O)c1ccc(NC(=O)C2CCN(S(=O)(=O)c3c(C)nn(-c4ccccc4)c3C)CC2)cc1
576 | Cc1cc(N2CCN(C)CC2)nc2ccc(NC(=O)c3cccc([N+](=O)[O-])c3)cc12
798 | CC(=O)c1cccc(NC(=O)CN(C)c2nc3c(F)cccc3s2)c1
705 | O=C(Cn1nc2c(N3CCCCCC3)nccn2c1=O)Nc1ccc(F)cc1F
911 | O=C(c1ccccc1F)N1CCC(c2nc(-c3ccccc3)no2)C1 (centres undefined)
899 | CC1CCN(C(=O)C2=CN(c3ccc4c(c3)OCCO4)c3ccccc3S2(=O)=O)CC1
790 | O=C(COc1ccc(-c2nnc3n2CCCC3)cc1)N1CCc2ccccc21
784 | CCc1nnc(-c2ccc3ccn(CC(=O)N4CCN(c5ccc(OC)cc5)CC4)c3c2)o1
562 | O=C(NCCc1ccccc1)NCC1CCN(Cc2ccco2)CC1
777 | COc1ccc(-c2ccnn2-c2ccc(SCC(N)=O)nn2)cc1
686 | Cc1cccc(Sc2nccnc2N2CCCC(C(=O)NCCN3CCOCC3)C2)c1 (centres undefined)
830 | CCc1ccccc1N1C(=O)CN(S(C)(=O)=O)CC1(C)C(=O)NCc1ccc(F)cc1 (centres undefined)
688 | COCCNC(=O)N1CCCN(C2=NS(=O)(=O)C(c3ccc(C)cc3)=C2C)CC1
768 | CC(C)n1cnc(S(=O)(=O)N2CCCC(C(=O)Nc3ccccc3)C2)c1 (centres undefined)
617 | O=C(CSc1ccc(N2CCCC(C(=O)NC3CC3)C2)nn1)Nc1c(F)cccc1F (centres undefined)
968 | O=C(NCc1cccs1)c1ccc(-c2nccnc2N2CCCCC2)cc1
1100 | CCCN1C(=O)COc2ccc(-c3csc(NC(=O)C4CCCCC4)n3)cc21
670 | CCCNC(=O)C1CCN(c2ccc(SCC(=O)Nc3cc(F)ccc3F)nn2)CC1
759 | Cc1nnsc1C(=O)N1CCC(CNC(=O)NC(c2ccccc2)c2ccccc2)CC1

RP-LC retention time [s] | Structure (SMILES)
764 | O=C(CCCn1nc(-c2ccccc2)c2cc(Cl)ccc21)N1CCN(c2ccccn2)CC1
652 | Cc1nc2cc3c(cc2n1CC(=O)NCc1ccc(Cl)cc1)OCCO3
759 | Cc1nnc2sc(SCC(=O)Nc3cccc(C(F)(F)F)c3)nn2c1=O
873 | Cc1ccc(S(=O)(=O)N2CCC(CCC(=O)NCc3ccccc3)CC2)cc1
796 | CCCn1c(=O)c(-c2ccc(C(=O)NCCOC)cc2)nc2cccnc21
1030 | CCn1c(=O)c(N2CCN(C(=O)Nc3cccc(Br)c3)CC2)nc2cccnc21
787 | CCC(C)NC(=O)c1nnc(-c2ccc(S(=O)(=O)N3CCOCC3)cc2)o1 (centres undefined)
849 | CCCn1ccc2sc(C)c(C(=O)N3CCN(c4ccccc4)CC3)c2c1=O
898 | O=C(Nc1ccc2c(c1)OCCO2)N1CCc2nc(-c3ccc(F)cc3)ncc2C1
674 | CCC(=O)N1CCOc2ccc(NC(=O)C3CC3)cc2C1
798 | COc1ccc(C(=O)N2CCC(COc3ccc(C(=O)NC4CC4)cc3)CC2)cc1F
683 | O=C(CC1c2ncccc2C(=O)N1c1ccccc1)N1CCN(c2ccccn2)CC1 (centres undefined)
795 | Cc1ccc(-n2nc3c(=O)n(CC(=O)NC4CCCC4)nc(C)c3c2C)cc1
670 | COc1cc2c(Oc3ccc(NC(=O)C4(C(=O)Nc5ccc(F)cc5)CC4)cc3F)ccnc2cc1OCCCN1CCOCC1
860 | O=C(COc1ccccc1F)Nc1ccc2c(c1)CCC(=O)N2Cc1ccccc1
1010 | CCc1cccc(NC(=O)Cn2nc3c(Sc4ccccc4)nccn3c2=O)c1
672 | CCn1cc(CN2CCC(C(=O)NC(C)CCc3ccccc3)CC2)c2cc(Cl)ccc21 (centres undefined)
892 | CC(Oc1ccc(Cl)cc1)C(=O)N1CCCN(c2cc(-c3ccc(Br)cc3)[nH]n2)CC1 (centres undefined)
852 | CCOC(=O)C1CCc2sc(NC(=O)c3n[nH]c4ccccc34)nc21 (centres undefined)
719 | Cc1nc(S(=O)(=O)N2CCC(C(=O)N3CCN(c4ccccc4F)CC3)CC2)cn1C
955 | Cc1ccc(CNC(=O)C2CCN(S(C)(=O)=O)c3cc(Cl)ccc3O2)cc1 (centres undefined)
